In patent publication US20040141912A1, “Method for targeting chemical compounds to cells and pharmaceutical compositions used therein” (priority 2001, published 2004):

How the values were obtained:
[1] = system: Jurkat cells; experiment: FACS analysis of NST830 uptake by Jurkat cells induced to undergo apoptosis by anti-Fas antibody (PI co-staining); format: cell-based, human; conditions: upper right quadrant
Experimental: FIG. 7 Jurkat cells were induced to undergo apoptosis by anti-Fas Ab treatment as described for FIG. 3 above. Subsequently, cells were incubated with 50 μM of NST830 for 5 minutes, co-stained with PI and subjected to FACS analysis. In order to inhibit PLS in apoptotic cells, two approaches were used:
(i). Ca^2+-deprivation: apoptotic cells were incubated for 30 min at room temperature in the presence of BAPTA (20 μM) and EGTA (1 mM), and then treated with NST830 and PI as above.
(ii). PLS inhibition by rottlerin: prior to treatment with NST830 and PI, apoptotic cells were incubated for 40 min in the presence of 0.5 μM of rottlerin, and then submitted to FACS analysis.
Cultured Jurkat cells were induced to undergo apoptosis by anti-Fas antibody (0.1 μg/ml) for 2.5 hours, as described in Example 1. Subsequently, both control and apoptotic cells were incubated with 50 μM of NST830 for 5 minutes, and uptake was measured by FACS. Prior to FACS analysis, cells were also co-stained with PI. Induction of apoptosis was associated with the emergence of a large, distinct population of 64% of cells in the early stages of the apoptotic process, selectively binding NST830 and occupying the right lower quadrant of the plot. No substantial change was observed under these conditions in the percentage of cells in late apoptosis, that are unselectively permeable to PI and NST830. […]

[2] = system: Jurkat cells; experiment: FACS analysis of DDC uptake by Jurkat cells induced to undergo apoptosis by staurosporine; format: cell-based, human
Experimental: FIG. 8: Jurkat cells were induced to undergo apoptosis by treatment with staurosporine. Subsequently, these cells were treated with DDC. The relative change in DDC uptake by cells in early versus late stages of apoptosis, following induction and inhibition of the PLS system is presented. Shown are the percents of positive early or late apoptotic events (mean values), calculated from 3 independent experiments, and wherein the events (either early or late) observed in apoptotic culture are regarded as 100%. Selective accumulation of DDC in early, but not in late apoptotic cells was detected as a result of staurosporine treatment. Ca^2+-deprivation or rottlerin treatment were performed as described in FIG. 1.
The selective uptake of DDC by apoptotic cells is not dependent upon the type of apoptotic trigger. […] Staurosporine acts in an apoptotic pathway which is largely distinct from that of anti-Fas Ab. Jurkat cells were grown as described in Example 1, and were subsequently treated for 4 hours with 1 μM of staurosporine (S4400; Sigma, USA). After induction of apoptosis, cells were treated with DDC (250 μM) for 5 minutes, and were then co-stained with PI and subjected to FACS analysis. Non-treated cells served as control.

How did the “NST830-binding, PI-permeable late apoptotic cells upon Ca2+-deprivation” value ([1]; BAPTA + EGTA) turn out when `CN(C)c1cccc2c(S(=O)(=O)NC(CSSCC(NS(=O)(=O)c3cccc4c(N(C)C)cccc34)C(=O)O)C(=O)O)cccc12` (stereo not drawn) [DDC] was run?
The value was “unaffected”.

And the “NST830-binding, PI-permeable late apoptotic cells in the presence of rottlerin” value ([1]; rottlerin 0.5 μM)?
Its value is “no change was detected”.

What about the “Positive early apoptotic events for DDC (apoptotic culture regarded as 100%)” value ([2]; control non-treated cells, mean of 3 experiments, DDC 250 μM 5 min) of the same compound?
Its value is 36%.

And the “Positive early apoptotic events for DDC (apoptotic culture regarded as 100%)” value ([2]; staurosporine 1 μM 4 h apoptotic cells)?
The value was 100%.

What about the “Positive early apoptotic events for DDC (apoptotic culture regarded as 100%)” value ([2]; staurosporine-treated cells, Ca2+-deprivation) of the same compound?
Its value is 14%.

What about the “Positive early apoptotic events for DDC (apoptotic culture regarded as 100%)” value ([2]; staurosporine-treated cells, rottlerin treatment) of the same compound?
Its value is 30%.
